Data published in ChEMBL document CHEMBL1156824, “Physicochemical space for optimum oral bioavailability: contribution of human intestinal absorption and first-pass elimination” (J Med Chem, 2010).

Tests used:
Homo sapiens = organism: Homo sapiens; assay: Hepatic clearance in human; conditions: in vivo
clinical = conditions: human, in vivo

SMILES	CL (Homo sapiens) [mL/min/kg]	CL renal (clinical) [mL/min/kg]
Cn1c(=O)c2c(ncn2CC(O)CO)n(C)c1=O (stereo unspecified) [DYPHYLLINE]	0.8	4
OC(Cn1cncn1)(Cn1cncn1)c1ccc(F)cc1F [FLUCONAZOLE]	0.1	0.2
COc1ccc([C@]2(C#N)CC[C@@H](C(=O)O)CC2)cc1OC1CCCC1 [CILOMILAST]	0.5	0.005
CN(C)CCC(c1ccc(Cl)cc1)c1ccccn1 (stereo unspecified) [CHLORPHENIRAMINE]	2.1	0.4
Cc1ccc(C(=O)Nc2ccc(S(=O)(=O)O)c3cc(S(=O)(=O)O)cc(S(=O)(=O)O)c23)cc1NC(=O)c1cccc(NC(=O)Nc2cccc(C(=O)Nc3cc(C(=O)Nc4ccc(S(=O)(=O)O)c5cc(S(=O)(=O)O)cc(S(=O)(=O)O)c45)ccc3C)c2)c1 [SURAMIN]	0.0011	0.0046
c1ccc(C2(N3CCCCC3)CCCCC2)cc1 [PHENCYCLIDINE]	4.3	0.8
CC[C@H]1OC(=O)[C@H](C)[C@@H](O[C@H]2C[C@@](C)(OC)[C@@H](O)[C@H](C)O2)[C@H](C)[C@@H](O[C@@H]2O[C@H](C)C[C@H](N(C)C)[C@H]2O)[C@](C)(OC)C[C@@H](C)C(=O)[C@H](C)[C@@H](O)[C@]1(C)O [CLARITHROMYCIN]	4.7	2.6
O=P1(NCCCl)OCCCN1CCCl (stereo unspecified) [IFOSFAMIDE]	0.5	0.6
CC(C)(O)c1ccccc1CC[C@@H](SCC1(CC(=O)O)CC1)c1cccc(/C=C/c2ccc3ccc(Cl)cc3n2)c1 [MONTELUKAST]	0.7	0.0014
CCCNC(=O)NS(=O)(=O)c1ccc(Cl)cc1 [CHLORPROPAMIDE]	0.036	0.009
CNCC[C@@H](Oc1ccccc1C)c1ccccc1 [ATOMOXETINE]	9	0.3
O=c1[nH]c2ccccc2n1CCCN1CCC(n2c(=O)[nH]c3cc(Cl)ccc32)CC1 [DOMPERIDONE]	9.5	0.038
COC(=O)Nc1nc2ccc(C(=O)c3ccccc3)cc2[nH]1 [MEBENDAZOLE]	14.8	0.2
C[C@@H]1C[C@H]2[C@@H]3CCC4=CC(=O)C=C[C@]4(C)[C@@]3(F)[C@@H](O)C[C@]2(C)[C@@]1(O)C(=O)CO [DEXAMETHASONE]	3.2	0.1
CN(C)CCCC1(c2ccc(F)cc2)OCc2cc(C#N)ccc21 (stereo unspecified) [CITALOPRAM]	3.8	0.5
Cn1c(=O)c2[nH]cnc2n(C)c1=O.O [THEOPHYLLINE]	0.8	0.1
Cc1nnc(SCC2=C(C(=O)O)N3C(=O)[C@@H](NC(=O)[C@H](O)c4ccccc4)[C@H]3SC2)s1	0.2	2.4
Cc1cc(=O)n(-c2ccccc2)n1C [ANTIPYRINE]	0.6	0.0243
CN(C)C(=O)Oc1cccc([N+](C)(C)C)c1.[Br-] [NEOSTIGMINE BROMIDE]	3.8	5.4
CC(CC(c1ccccc1)c1ccccc1)NC(C)(C)C (stereo unspecified) [TERODILINE]	1	0.1
C[C@H]1O[C@H](O[C@H]2[C@H](O)[C@@H](O)[C@@H](O[C@H]3[C@H](O)[C@@H](O)C(O)O[C@@H]3CO)O[C@@H]2CO)[C@H](O)[C@@H](O)[C@@H]1N[C@H]1C=C(CO)[C@@H](O)[C@H](O)[C@H]1O (stereo partly specified) [ACARBOSE]	0.1	2.1
O=C(N[C@H](CO)[C@H](O)c1ccc([N+](=O)[O-])cc1)C(Cl)Cl [CHLORAMPHENICOL]	2.2	0.2
COc1ccccc1N1CCN(CCCNc2cc(=O)n(C)c(=O)n2C)CC1	2.6	0.5

SMILES	CL (Homo sapiens) [mL/min/kg]	CL renal (clinical) [mL/min/kg]
OC(CCN1CCCC1)(c1ccccc1)C1CCCCC1 (stereo unspecified) [PROCYCLIDINE]	0.8	0.043
CC1=NS(=O)(=O)c2cc(Cl)ccc2N1 [DIAZOXIDE]	–	0.1
C=CCN1CCCC1CNC(=O)c1cc2[nH]nnc2cc1OC (stereo unspecified) [ALIZAPRIDE]	1.3	5.3
CN1CCN2c3ncccc3Cc3ccccc3C2C1 (stereo unspecified) [MIRTAZAPINE]	7.7	0.3
COc1ccc2c(c1)N(C[C@H](C)CN(C)C)c1ccccc1S2 [LEVOMEPROMAZINE]	5.9	4
COc1cc2nc(N3CCN(C(=O)C4CCCO4)CC3)nc(N)c2cc1OC (stereo unspecified) [TERAZOSIN]	1	0.1
CC1CCCC(C)N1CCCC(O)(c1ccccc1)c1ccccn1 (stereo unspecified) [PIRMENOL]	1.1	0.7
NC(=O)CN1CC(O)CC1=O (stereo unspecified) [OXIRACETAM]	0.1	1.7
CN(C(=O)c1c(O)c2ccccc2n(C)c1=O)c1ccccc1 [ROQUINIMEX]	0.1	0.0008
NC(=O)NO [HYDROXYUREA]	1	0.5
CCOC(=O)c1ncn2c1CN(C)C(=O)c1cc(F)ccc1-2 [FLUMAZENIL]	16	0.032
NS(=O)(=O)c1cc(C2(O)NC(=O)c3ccccc32)ccc1Cl (stereo unspecified) [CHLORTHALIDONE]	0.5	1
COc1cccc(C2(O)CCCCC2CN(C)C)c1 (stereo unspecified) [TRAMADOL]	5.5	1
CCC[C@@H]1C[C@@H](C(=O)N[C@@H]([C@H]2O[C@H](SC)[C@H](O)[C@@H](O)[C@H]2O)[C@H](C)Cl)N(C)C1 [CLINDAMYCIN]	3.9	0.6
Cc1nccn1CC1CCc2c(c3ccccc3n2C)C1=O (stereo unspecified) [ONDANSETRON]	5.5	0.3
C[C@H]([C@](O)(Cn1cncn1)c1ccc(F)cc1F)S(C)(=O)=O [GENACONAZOLE]	0.038	0.2
O=C1CN=C(c2ccccn2)c2cc(Br)ccc2N1 [BROMAZEPAM]	0.3	0.3
Cc1cccc(Nc2ccncc2S(=O)(=O)NC(=O)NC(C)C)c1 [TORSEMIDE]	0.4	0.1
Cc1ccsc1C(=CCCN1CCC[C@@H](C(=O)O)C1)c1sccc1C [TIAGABINE]	1.6	0.032
C[C@H]1c2cccc(O)c2C(=O)C2=C(O)[C@]3(O)C(=O)C(C(N)=O)=C(O)[C@@H](N(C)C)[C@@H]3[C@@H](O)[C@@H]21.O [DOXYCYCLINE]	0.3	0.2
CCCC(CCC)C(=O)O [VALPROIC ACID]	–	0.0029
COCCc1ccc(OCC(O)CNC(C)C)cc1 (stereo unspecified) [METOPROLOL]	12.4	0.7
CCC1(c2ccccc2)C(=O)NC(=O)NC1=O [PHENOBARBITAL]	0.0479	0.0151

SMILES	CL (Homo sapiens) [mL/min/kg]	CL renal (clinical) [mL/min/kg]
CCO[C@@H](Cc1ccc(OCCc2ccc(OS(C)(=O)=O)cc2)cc1)C(=O)O [TESAGLITAZAR]	0.032	0.007
Cc1ccnc2c1NC(=O)c1cccnc1N2C1CC1 [NEVIRAPINE]	0.3	0.0069
CCC1=C(C)CN(C(=O)NCCc2ccc(S(=O)(=O)NC(=O)N[C@H]3CC[C@H](C)CC3)cc2)C1=O [GLIMEPIRIDE]	0.5	0.002
CCN1CC(CCN2CCOCC2)C(c2ccccc2)(c2ccccc2)C1=O (stereo unspecified) [DOXAPRAM]	5	0.3
CCCCN1CCCCC1C(=O)Nc1c(C)cccc1C (stereo unspecified) [BUPIVACAINE]	4.2	0.1
CN(C)CCCN1c2ccccc2Sc2ccc(Cl)cc21 [CHLORPROMAZINE]	15.8	0.2
CN1C(=O)CC[C@H]1c1cccnc1 [COTININE]	0.8	0.1
C[C@@H]1C(=O)O[C@H]2[C@H](O)[C@@]34[C@H]5C[C@@H](C(C)(C)C)[C@]36[C@@H](OC(=O)[C@@H]6O)O[C@@]4(C(=O)O5)[C@@]12O [GINKOLIDE B]	1.3	1
C[C@@H]1C(=O)O[C@H]2C[C@@]34[C@H]5C[C@@H](C(C)(C)C)[C@]36[C@@H](OC(=O)[C@@H]6O)O[C@@]4(C(=O)O5)[C@]21O [GINKGOLIDE A]	0.7	1.7
O=c1n(CCCN2CCN(c3cccc(Cl)c3)CC2)nc2ccccn12 [TRAZODONE]	1.4	0.0018
O=C1CN=C(c2ccccc2)c2cc([N+](=O)[O-])ccc2N1 [NITRAZEPAM]	0.9	0.0086
CCOc1cc(CC(=O)N[C@@H](CC(C)C)c2ccccc2N2CCCCC2)ccc1C(=O)O [REPAGLINIDE]	7.7	0.1
CCS(=O)(=O)CCn1c([N+](=O)[O-])cnc1C [TINIDAZOLE]	0.5	0.1
CC(C)(C)NC(=O)[C@H]1CC[C@H]2[C@@H]3CC[C@H]4NC(=O)C=C[C@]4(C)[C@H]3CC[C@]12C [FINASTERIDE]	–	0.024
CCCCNc1cc(C(=O)O)cc(S(N)(=O)=O)c1Oc1ccccc1 [BUMETANIDE]	1	1.5
CCOC(=O)Nc1ccc(NCc2ccc(F)cc2)nc1N [FLUPIRTINE]	1.3	0.3
O=C(NCCN1CCOCC1)c1ccc(Cl)cc1 [MOCLOBEMIDE]	10	0.1
CCN1CCC[C@H]1CNC(=O)c1c(OC)ccc(Br)c1OC [REMOXIPRIDE]	1.3	0.4
CN(C)CCC=C1c2ccccc2CCc2ccccc21 [AMITRIPTYLINE]	6	0.1
Cc1cc(NC(=O)C2=C(O)c3ccccc3S(=O)(=O)N2C)no1 [ISOXICAM]	0.1	0.0014
CS(=O)(=O)OCCCCOS(C)(=O)=O [BUSULFAN]	2.4	0.024
